Test results: patent US8951975B2, “ECT2 peptides and vaccines including the same” (OncoTherapy Science, Inc., priority 2010, dated 2015)
Entries after “also recorded” stand apart in the source; their conditions may differ. Ends that are not written are not given here.

Key:
[1] = test system: peptide-pulsed T2 cells; assay: IFN-gamma ELISPOT assay on CTLs induced with peptide-pulsed DCs; format: cell-based, human; settings: for CTL inducibility / specific CTL activity of CTLs stimulated with the peptide: summary statement; for IFN-gamma production of CTLs induced with the peptide (ELISPOT): against peptide-pulsed target cells, compared with control without peptide
Text: Monocyte-derived dendritic cells (DCs) were used as antigen-presenting cells to induce cytotoxic T lymphocyte (CTL) responses against peptides presented on human leukocyte antigen (HLA). DCs were generated in vitro as described elsewhere (Nakahara S et al., Cancer Res 2003 Jul. 15, 63(14): 4112-8). Specifically, peripheral blood mononuclear cells (PBMCs) isolated from a normal volunteer (HLA-A*0201 positive) by Ficoll-Plaque (Pharmacia) solution were separated by adherence to a plastic tissue culture dish (Becton Dickinson) so as to enrich them as the monocyte fraction. The monocyte-enriched population was cultured in the presence of 1,000 U/ml of granulocyte-macrophage colony-stimulating factor (R&D System) and 1,000 U/ml of interleukin (IL)-4 (R&D System) in AIM-V Medium (Invitrogen) containing 2% heat-inactivated autologous serum (AS). After 7 days of culture, the cytokine-induced DCs were pulsed with 20 micro-g/ml of each of the synthesized peptides in the presence of 3 micro-g/ml of beta 2-microglobulin for 3 hrs at 37 degrees C. in AIM-V Medium. The generated cells appeared to express DC-associated molecules, such as CD80, CD83, CD86 and HLA class II, on their cell surfaces (data not shown). These peptide-pulsed DCs were then inactivated by X-irradiation (20 Gy) and mixed at a 1:20 ratio with autologous CD8+ T cells, obtained by positive selection with CD8 Positive Isolation Kit (Dynal). These cultures were set up in 48-well plates (Corning); each well contained 1.5×10^4 peptide-pulsed DCs, 3×10^5 CD8+ T cells and 10 ng/ml of IL-7 (R&D System) in 0.5 ml of AIM-V/2% AS medium. Three days later, these cultures were supplemented with IL-2 (CHIRON) to a final concentration of 20 IU/ml. On days 7 and 14, the T cells were further stimulated with the autologous peptide-pulsed DCs. The DCs were prepared each time by the same way described above. CTLs were tested against peptide-pulsed T2 cells after the 3rd round of peptide stimulation on day 21 (Tanaka H et al., Br J Cancer 2001 Jan. 5, 84(1): 94-9; Umano Y et al., Br J Cancer 2001 Apr. 20, 84(8): 1052-7; Uchida N et al., Clin Cancer Res 2004 Dec. 15, 10(24): 8577-86; Suda T et al., Cancer Sci 2006 May, 97(5): 411-9; Watanabe T et al., Cancer Sci 2005 August, 96(8): 498-506).
(§1) Specifically, peptide-pulsed T2 (1×10^4/well) was prepared as stimulator cells. Cultured cells in 48 wells were used as responder cells. IFN-gamma ELISPOT assay and IFN-gamma ELISA assay were performed under manufacture procedure.

[2] = test system: peptide-pulsed T2 cells; assay: IFN-gamma ELISA assay of established CTL lines; format: cell-based, human; settings: against target cells pulsed with the corresponding peptide vs without peptide pulse
Procedure: CTLs were expanded in culture using the method similar to the one described by Riddell et al. (Walter E A et al., N Engl J Med 1995 Oct. 19, 333(16): 1038-44; Riddell S R et al., Nat Med 1996 February, 2(2): 216-23). A total of 5×10^4 CTLs were suspended in 25 ml of AIM-V/5% AS medium with 2 kinds of human B-lymphoblastoid cell lines, inactivated by Mitomycin C, in the presence of 40 ng/ml of anti-CD3 monoclonal antibody (Pharmingen). One day after initiating the cultures, 120 IU/ml of IL-2 were added to the cultures. The cultures were fed with fresh AIM-V/5% AS medium containing 30 IU/ml of IL-2 on days 5, 8 and 11 (Tanaka H et al., Br J Cancer 2001 Jan. 5, 84(1): 94-9; Umano Y et al., Br J Cancer 2001 Apr. 20, 84(8): 1052-7; Uchida N et al., Clin Cancer Res 2004 Dec. 15, 10(24): 8577-86; Suda T et al., Cancer Sci 2006 May, 97(5): 411-9; Watanabe T et al., Cancer Sci 2005 August, 96(8): 498-506).
as §1

[3] = test system: peptide-pulsed T2 cells; assay: IFN-gamma ELISA assay of CTL clones established by limiting dilution; format: cell-based, human; settings: against target cells pulsed with peptide vs not pulsed
Procedure: The dilutions were made to have 0.3, 1, and 3 CTLs/well in 96 round-bottomed micro titer plate (Nalge Nunc International). CTLs were cultured with 1×10^4 cells/well of 2 kinds of human B-lymphoblastoid cell lines, 30 ng/ml of anti-CD3 antibody, and 125 U/ml of IL-2 in a total of 150 micro-l/well of AIM-V Medium containing 5% AS. 50 micro-1/well of IL-2 were added to the medium 10 days later so to reach a final concentration of 125 U/ml IL-2. CTL activity was tested on the 14th day, and CTL clones were expanded using the same method as described above (Uchida N et al., Clin Cancer Res 2004 Dec. 15, 10(24): 8577-86; Suda T et al., Cancer Sci 2006 May, 97(5): 411-9; Watanabe T et al., Cancer Sci 2005 August, 96(8): 498-506).
as §1

[4] = test system: COS7 cells transfected with ECT2 and HLA-A*0201; assay: Specific CTL activity against target cells exogenously expressing ECT2 and HLA-A*0201; format: cell-based, African green monkey; settings: for Specific CTL activity against COS7 cells transfected with both ECT2 and HLA-A*0201: CTL clone (SEQ ID NO: 1) or CTL line (SEQ ID NO: 21) as effector cells; for Specific CTL activity against control COS7 cells expressing either HLA-A*0201 or ECT2: controls transfected with only one gene
Text: The cDNA encoding an open reading frame of target genes or HLA-A*0201 was amplified by PCR. The PCR-amplified product was cloned into a vector. The plasmids were transfected into COS7, which is the target genes and HLA-A*0201-null cell line, using lipofectamine 2000 (Invitrogen) according to the manufacturer's recommended procedures. After 2 days from transfection, the transfected cells were harvested with versene (Invitrogen) and used as the target cells (5×10^4 cells/well) for CTL activity assay.
The established CTL lines and clones raised against these peptides was examined for the ability to recognize target cells that exogenously express ECT2 and HLA-A*0201 molecule. […] COS7 cells transfected with either full length of ECT2 or HLA-A*0201 were prepared as the controls.

Substance	CTL inducibility / specific CTL activity of CTLs stimulated with the peptide [1]	IFN-gamma production of CTLs induced with the peptide (ELISPOT) [1]	IFN-gamma production of CTL lines stimulated with the peptide (ELISA) [2]	IFN-gamma production of CTL clones stimulated with the peptide (ELISA) ([3]; listed as ECT2-A02-9-664)	Specific CTL activity against COS7 cells transfected with both ECT2 and HLA-A*0201 ([4]; listed as ECT2-A02-9-34)	Specific CTL activity against control COS7 cells expressing either HLA-A*0201 or ECT2 [4]	IFN-gamma production of CTL clones stimulated with the peptide (ELISA) ([3]; listed as ECT2-A02-9-34)	Specific CTL activity against COS7 cells transfected with both ECT2 and HLA-A*0201 ([4]; listed as ECT2-A02-10-33)
1 (LLIGSTSYV) [compound 1]	strong CTL inducibility							
3 (FLFNDCLEI) [compound 3]	strong CTL inducibility							
21 (NLLIGSTSYV) [compound 21]	strong CTL inducibility							
FLFNDCLEI [SEQ ID NO: 3]	significant and specific CTL activity	potent IFN-gamma production	potent IFN-gamma production	potent IFN-gamma production				
LLIGSTSYV [SEQ ID NO: 1]	significant and specific CTL activity	potent IFN-gamma production	potent IFN-gamma production		potent CTL activity; also recorded: specific CTL activity	no significant specific CTL activity was detected	potent IFN-gamma production	
NLLIgSTSYV (NLLIGSTSYV; not fully specified; printed as NLLIgSTSYV) [SEQ ID NO: 21]	significant and specific CTL activity	potent IFN-gamma production	potent IFN-gamma production			no significant specific CTL activity was detected		potent CTL activity; also recorded: specific CTL activity
